Activity calls are given as the source filed them. Unless noted, the rule behind the calls is not given here.
Legend:
SH-SY5Y [1] = assay: Inhibition of Zn2+-mediated amyloid beta (1 to 42 residues) production in human SH-SY5Y cells expressing APPswe mutant at 1 uM after 72 hrs by ELISA based spectrophotometric analysis; assay type: cell-based
SH-SY5Y [2] = assay: Neuroprotective activity against amyloid beta (1 to 42 residues) induced cell death in human SH-SY5Y cells expressing APPswe mutant at 1 uM after 48 hrs by WST1 assay; assay type: functional, cell-based
[3] = Metal chelating activity assessed as compound-Zn2+ complex formation by UV-vis spectrophotometric analysis
[4] = Metal chelating activity assessed as compound-Fe3+ complex formation by UV-vis spectrophotometric analysis
[5] = Metal chelating activity assessed as compound-Cu2+ complex formation by UV-vis spectrophotometric analysis
SH-SY5Y [6] = assay: Antiproliferative activity against human SH-SY5Y cells at 1 uM after 48 hrs by WST1 assay; assay type: cell-based
SH-SY5Y [7] = assay: Inhibition of Cu2+-mediated amyloid beta (1 to 42 residues) production in human SH-SY5Y cells expressing APPswe mutant at 1 uM after 72 hrs by ELISA based spectrophotometric analysis; assay type: cell-based
SH-SY5Y [8] = assay: Inhibition of Fe3+-mediated amyloid beta (1 to 42 residues) production in human SH-SY5Y cells expressing APPswe mutant at 1 uM after 72 hrs by ELISA based spectrophotometric analysis; assay type: cell-based
SH-SY5Y [9] = assay: Antiproliferative activity against human SH-SY5Y cells at 1 uM after 24 to 72 hrs by WST1 assay; assay type: cell-based
[10] = Effective permeability of the compound at 10^-5 mol/L after 5 hrs by UV-based PAMPA; assay type: ADME; settings: read-out: Peff
[11] = target: Acetylcholinesterase (Homo sapiens) (UniProt P22303); assay: Inhibition of acetylcholinesterase (unknown origin) at 1 uM using acetylthiocholine chloride as substrate measured for 5 to 40 mins
SH-SY5Y [12] = assay: Inhibition of Cu2+-mediated ROS generation in human SH-SY5Y cells expressing APPswe mutant at 1 uM after 72 hrs by DCF-DA dye-based fluorescence spectroscopic analysis; assay type: cell-based
SH-SY5Y [13] = assay: Inhibition of Fe3+-mediated ROS generation in human SH-SY5Y cells expressing APPswe mutant at 1 uM after 72 hrs by DCF-DA dye-based fluorescence spectroscopic analysis; assay type: cell-based
SH-SY5Y [14] = assay: Inhibition of Cu2+-induced caspase-3 activity in human SH-SY5Y cells expressing APPswe mutant at 1 uM after 72 hrs by AcDEVD substrate-based spectrophotometric analysis; assay type: cell-based
SH-SY5Y [15] = assay: Inhibition of Cu2+-induced toxicity in human SH-SY5Y cells expressing APPswe mutant assessed as increase in cell viability at 1 uM after 72 hrs by WST1 assay; assay type: cell-based
SH-SY5Y [16] = assay: Inhibition of Zn2+-mediated ROS generation in human SH-SY5Y cells expressing APPswe mutant at 1 uM after 72 hrs by DCF-DA dye-based fluorescence spectroscopic analysis; assay type: cell-based

Chain of Acetylcholinesterase (Homo sapiens) (P22303 whole entry): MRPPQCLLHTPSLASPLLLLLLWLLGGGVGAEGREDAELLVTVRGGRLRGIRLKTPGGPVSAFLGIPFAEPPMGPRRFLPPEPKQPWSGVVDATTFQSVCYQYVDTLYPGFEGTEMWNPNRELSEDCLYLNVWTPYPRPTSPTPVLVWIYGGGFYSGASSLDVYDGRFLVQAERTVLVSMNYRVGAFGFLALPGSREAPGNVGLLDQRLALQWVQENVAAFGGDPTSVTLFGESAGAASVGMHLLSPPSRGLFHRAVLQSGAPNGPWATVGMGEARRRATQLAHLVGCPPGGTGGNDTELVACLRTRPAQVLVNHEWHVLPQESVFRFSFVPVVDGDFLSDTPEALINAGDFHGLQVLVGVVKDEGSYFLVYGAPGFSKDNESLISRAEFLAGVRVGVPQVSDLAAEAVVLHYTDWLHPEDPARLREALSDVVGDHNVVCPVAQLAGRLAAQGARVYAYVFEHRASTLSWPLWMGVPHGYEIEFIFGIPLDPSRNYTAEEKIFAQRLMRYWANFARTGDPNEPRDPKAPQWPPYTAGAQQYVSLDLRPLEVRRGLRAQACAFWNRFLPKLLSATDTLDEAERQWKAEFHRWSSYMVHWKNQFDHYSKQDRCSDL

Structure (SMILES) | inhibition (SH-SY5Y [1]) | Activity (SH-SY5Y [2]) | Activity [3] | Activity [4] | Activity [5] | Activity (SH-SY5Y [6]) | inhibition (SH-SY5Y [7]) | inhibition (SH-SY5Y [8]) | Activity (SH-SY5Y [9]) | Papp at 5 h, 10 µM [10] [×10⁻⁶ cm/s] | inhibition [11] | inhibition (SH-SY5Y [12]) | inhibition (SH-SY5Y [13]) | inhibition (SH-SY5Y [14]) | inhibition (SH-SY5Y [15]) | inhibition (SH-SY5Y [16])
c1ccc(C(=NNc2nncc3ccccc23)c2ccccn2)nc1 | inactive | inactive | Active | Active | Active | Toxic | inactive | inactive |  |  |  |  |  |  |  | 
Oc1c(I)cc(Cl)c2cccnc12 | Active |  |  |  |  |  | Active | Active |  |  |  |  |  |  |  | 
CCN1/C(=C/c2c(N/N=C/c3c(CO)cnc(C)c3O)c(=O)c2=O)Sc2ccccc21 |  | inactive | inactive | Active | Active |  | inactive | inactive | Non-Toxic | 2.8 | inactive | inactive | inactive |  |  | 
COc1cccc(/C=N/NC(=O)CC[C@@H](C)[C@H]2CC[C@H]3[C@@H]4[C@H](O)C[C@@H]5C[C@H](O)CC[C@]5(C)[C@H]4C[C@H](O)[C@]23C)c1O |  | Active | inactive | inactive | Active |  | inactive |  | Non-Toxic |  | inactive |  |  | Active | Active | 
COc1ccc(Nc2c(N/N=C/c3ccc4ccccc4n3)c(=O)c2=O)cc1 |  | inactive | inactive | Active | Active |  | inactive | inactive | Non-Toxic |  | inactive | inactive | inactive |  |  | 
Cc1ncc(CO)c(/C=N/NC(=O)c2ccc(NC(=O)CC[C@@H](C)[C@H]3CC[C@H]4[C@@H]5[C@H](O)C[C@@H]6C[C@H](O)CC[C@]6(C)[C@H]5C[C@H](O)[C@]34C)cc2)c1O (stereo in doubt) | inactive | inactive | Active | Active | Active |  | inactive | inactive | Non-Toxic | 2.2 | inactive | inactive | inactive |  |  | inactive
COc1cccc(/C=N/NC(=O)c2ccc(NC(=O)CC[C@@H](C)[C@H]3CC[C@H]4[C@@H]5[C@H](O)C[C@@H]6C[C@H](O)CC[C@]6(C)[C@H]5C[C@H](O)[C@]34C)cc2)c1O (stereo in doubt) | inactive | inactive | Active | Active | Active |  | inactive | inactive | Non-Toxic |  | inactive | inactive | inactive |  |  | inactive
COc1ccc(Nc2c(N/N=C/c3ccc(C(C)(C)C)cc3O)c(=O)c2=O)cc1 |  | inactive | inactive | Active | Active |  | inactive | inactive | Non-Toxic |  | inactive | inactive | inactive |  |  | 
CC(C)(C)c1ccc(O)c(/C=N/Nc2nncc3ccccc23)c1 | inactive | inactive | Active | Active | Active | Toxic | inactive | inactive |  |  |  |  |  |  |  | 
CCN1/C(=C/c2c(N/N=C/c3cccc(OC)c3O)c(=O)c2=O)Sc2ccccc21 |  | inactive | inactive | Active | Active |  | inactive | inactive | Non-Toxic |  | inactive | inactive | inactive |  |  | 
COc1ccc(Nc2c(N/N=C/c3cccc(OC)c3O)c(=O)c2=O)cc1 |  | inactive | inactive | Active | Active |  | inactive | inactive | Non-Toxic |  | inactive | inactive | inactive |  |  | 
C[C@H](CCC(=O)Nc1ccc(C(=O)N/N=C/c2ccc3ccccc3n2)cc1)[C@H]1CC[C@H]2[C@@H]3[C@H](O)C[C@@H]4C[C@H](O)CC[C@]4(C)[C@H]3C[C@H](O)[C@]12C (stereo in doubt) | inactive | inactive | Active | Active | Active |  | inactive | inactive | Non-Toxic |  | inactive | inactive | inactive |  |  | inactive
Cc1ncc(CO)c(/C=N/Nc2nncc3ccccc23)c1O |  | inactive | inactive | Active | Active | Toxic | inactive | inactive |  | 7.8 |  |  |  |  |  | 
C[C@H](CCC(=O)Nc1ccc(C(=O)NN=C(c2ccccn2)c2ccccn2)cc1)[C@H]1CC[C@H]2[C@@H]3[C@H](O)C[C@@H]4C[C@H](O)CC[C@]4(C)[C@H]3C[C@H](O)[C@]12C |  | inactive | inactive | Active | Active |  | inactive | inactive | Non-Toxic |  | inactive | inactive | inactive |  |  | 
COc1cccc(/C=N/Nc2nncc3ccccc23)c1O | inactive | inactive | Active | Active | Active | Toxic | inactive | inactive |  |  |  |  |  |  |  | 
CCN1/C(=C/c2c(N/N=C/c3cc(C(C)(C)C)ccc3O)c(=O)c2=O)Sc2ccccc21 |  | inactive | inactive | Active | Active |  | inactive | inactive | Non-Toxic |  | inactive | inactive | inactive |  |  | 
COc1ccc(Nc2c(N/N=C/c3c(CO)cnc(C)c3O)c(=O)c2=O)cc1 |  | inactive | inactive | Active | Active |  | inactive | inactive | Non-Toxic | 1.6 | inactive | inactive | inactive |  |  | 
C[C@H](CCC(=O)Nc1ccc(C(=O)N/N=C/c2ccc(C(C)(C)C)cc2O)cc1)[C@H]1CC[C@H]2[C@@H]3[C@H](O)C[C@@H]4C[C@H](O)CC[C@]4(C)[C@H]3C[C@H](O)[C@]12C (stereo in doubt) | inactive | inactive | Active | Active | Active |  | inactive | inactive | Non-Toxic |  | inactive | inactive | inactive |  |  | inactive
CCN1/C(=C/c2c(N/N=C/c3ccc4ccccc4n3)c(=O)c2=O)Sc2ccccc21 | inactive | inactive | Active | Active | Active |  | inactive | inactive | Non-Toxic |  | inactive | inactive | inactive |  |  | inactive
C(=N\Nc1nncc2ccccc12)/c1ccc2ccccc2n1 |  | inactive | inactive | inactive | Active | Toxic | inactive |  |  |  |  |  |  |  |  | 

From ChEMBL document CHEMBL4196074, “Metallomics for Alzheimer's disease treatment: Use of new generation of chelators combining metal-cation binding and transport properties” (Eur J Med Chem, 2018)
